Patent US20250170121A1, “ISOQUINOLINONE COMPOUND, AND PREPARATION METHOD AND USE THEREFOR” (FUDAN UNIVERSITY, priority 2022, published 2025)

Tests used:
prostate cancer cells = details: background statement; cited from earlier work
[1] = system: IL-6 secretion in THP-1 cells; assay: IL-6 secretion in LPS-stimulated THP-1 monocyte-derived macrophages (ELISA); type: cell-based; details: FIG. 3
Text: (§1) In FIG. 3, the vertical axis represents the amount (ng) of MCP-1 contained in each mg of cell protein. Wherein, Control (Con) represents blank control treatment, LPS represents lipopolysaccharide treatment, BMS309403 represents inhibitor positive control treatment, RO6806051 (RO) represents lead compound treatment, and Y2, Y3, Y15, Y16 and Y18 represent treatments with compounds Y2, Y3, Y15, Y16 and Y18 prepared in the present invention, respectively.
(§2) Effects of the compounds on monocyte chemoattractant factor-1 (MCP-1) and interleukin-6 (IL-6) in THP-1 monocyte-derived macrophage.
(§3) First, monocytic cell line THP-1 in logarithmic growth phase was plated on a 96-well plate at a cell density of 5*10^5/ml; then 100 nM phorbol myristate ester (PMA) was added to induce the cells for 24 hours to differentiate into macrophages; then the cells were washed once or twice with phosphate buffered saline (PBS), and different concentrations of compounds (5, 10, 25 μM) were added for incubation for 18 hours; finally, after 6 hours of stimulation with 100 ng/ml lipopolysaccharide (LPS), the supernatant was collected and diluted to a certain multiple and the contents of MCP-1 and IL-6 were detected using enzyme-linked immunosorbent assay (ELISA), and cell protein was collected and the protein concentration was measured by BCA method for calibration.

Human FABP4 = molecular target: T1, Human FABP4 (Homo sapiens, UniProt P15090); assay: FABP4 inhibition rate, ANS substrate competition (fluorescence) method; type: binding; details: compound 25 μM; 10 μM 1,8-ANS, 10 μM FABP4
T1 construct: His tag; made in house; host or cells: E. coli BL21 (DE3)
Text: (§4) Considering that inhibition of FABP3 would cause myocardial function damage and bring potential safety issues, we tested the inhibitory activity of some compounds on FABP3. The activity test is illustrated by the example of the FABP4 activity test system as below.
(§5) Experimental principle and method: Once the free non-covalent fluorescent probe ANS binds to FABP4, the ANS fluorescence intensity will increase and its spectrum will be blue shifted. In this experiment, the inhibitory effect of the compound on FABP4 was evaluated by measuring the change in the ANS fluorescence signal value. For the FABP4 inhibitory activity test, the ANS substrate competition method was used, and we used the method of Kane and Bernlohr (E. Marr, M. Tardie, M. Carty, T. Brown Phillips, I. K. Wang, W. Soeller, X. Qiu, G. Karam, Expression, purification, crystallization and structure of human adipocyte lipid-binding protein (aP2). Acta Crystallogr., Sect. F: Struct. Biol. Cryst. Commun. 62 (2006) 1058-1060.). Human FABP4 with a His tag was expressed in the BL21 (DE3) strain and then purified using a Ni column with a His tag to generate the protein. In the detection system, the concentration of 1,8-ANS substrate was 10 μM, the final concentration of FABP4 was 10 μM, and then the compound prepared by the present invention was added at the required concentration for incubation for 3 minutes, and finally the fluorescence signal was detected at an excitation wavelength (EX) of 370 nm/emission wavelength (EM) of 470 nm. The inhibition rate (%) of the test sample on FABP4 was calculated according to the fluorescence absorption value of the system. The inhibition rate (%) was calculated according to the following equation: […]
(§6) FX represents the fluorescence value (fluorescence, F) of the system measured in the presence of compound x;
(§7) Fbackground represents the fluorescence value of the fluorescent substrate ANS;
(§8) F0% represents the fluorescence value of the system when the inhibition rate is 0%, that is, when no compound was added.

FABP5 = FABP5 (Homo sapiens, UniProt Q01469); assay: FABP5 inhibition rate, ANS substrate competition method (illustrated by the FABP4 system); type: binding; details: compound 25 μM
3T3-L1 cells = assay: Lipolysis inhibition in differentiated mature 3T3-L1 adipocytes (supernatant glycerol, forskolin stimulation); type: cell-based; details: 80 μM compound, 24 h incubation, 20 μM forskolin 2 h; FIG. 1
Description: In this example, the lipolysis inhibitory activity of the compounds prepared in the present invention on differentiated mature 3T3-L1 preadipocytes was measured.
5 In adipocytes, FABP4 plays the role of a fatty acid chaperone, and gene knockout or drug inhibition of FABP4 can be used to inhibit lipolysis and promote lipid production in adipocytes. Therefore, the lipolysis experiment can be used as a confirmation indicator of the FABP4 inhibitory activity of the compound. In this experiment, the lipolysis activity of the compounds was evaluated by measuring the effect of the compounds prepared in the present 10 invention on the glycerol content of the supernatant of mature adipocytes.
Experimental materials: 3T3-L1 preadipocytes; calf serum, fetal bovine serum, high glucose H-DMEM culture medium, 3-isobutyl-1-methylxanthine (IBMX), dexamethasone, insulin, Forskolin, glycerol determination kit, BCA protein concentration determination kit.
1. 3T3-L1 preadipocytes were inoculated on culture plates and cultured in high-glucose DMEM containing 10% calf serum in a 37° C., 5% CO2 incubator;
2. After the cells were fully grown, contact inhibition was performed for two days;
3. […]
6. The cell supernatant was collected to measure the glycerol content, the intracellular protein concentration was measured by BCA method for calibration, and finally Graphpad Prism was used to analyze the results.

[2] = system: MCP-1 secretion in THP-1 cells; assay: MCP-1 secretion in LPS-stimulated THP-1 monocyte-derived macrophages (ELISA); type: cell-based; details: FIG. 2; for secretion of inflammatory factor MCP-1 in THP-1 mononuclear macrophages: 25 μM, 10 μM and 5 μM, 18 h incubation, 100 ng/ml LPS 6 h; for MCP-1 reducing activity compared with BMS309403 and RO6806051: THP-1 macrophages, LPS
Text: as §1, with “FIG. 2A to FIG. 2C,” for “FIG. 3,”, “cell protein: in FIG. 2D, the vertical axis represents the relative concentration of MCP-1 (ng/mg cellular protein % LPS).” for “cell protein.”, “Control” for “Control (Con)”
as §2, §3

FABP3 = FABP3 (Homo sapiens, UniProt P05413); assay: FABP3 inhibition rate, ANS substrate competition method (illustrated by the FABP4 system); type: binding; details: compound 25 μM
Text: as §4, §5, §6, §7, §8

FABP3, sequence (P05413 whole entry): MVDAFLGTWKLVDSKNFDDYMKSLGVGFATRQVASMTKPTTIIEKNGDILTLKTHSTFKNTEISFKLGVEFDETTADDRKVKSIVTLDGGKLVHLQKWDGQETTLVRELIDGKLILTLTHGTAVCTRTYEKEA
T1 sequence (P15090 whole entry): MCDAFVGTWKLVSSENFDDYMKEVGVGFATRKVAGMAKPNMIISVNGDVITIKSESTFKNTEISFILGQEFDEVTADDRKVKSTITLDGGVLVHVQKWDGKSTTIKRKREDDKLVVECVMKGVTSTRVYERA
FABP5, sequence (Q01469 whole entry): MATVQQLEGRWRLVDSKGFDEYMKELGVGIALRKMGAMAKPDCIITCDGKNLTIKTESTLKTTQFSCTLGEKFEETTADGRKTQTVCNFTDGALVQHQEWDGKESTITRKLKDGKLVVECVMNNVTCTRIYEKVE

inhibition at 25 µM (Human FABP4) [%] | inhibition at 25 µM (FABP5) [%] | inhibition at 25 µM (FABP3) [%] | Compound | effect on prostate cancer cell proliferation, metastasis and apoptosis (prostate cancer cells) | IL-6 secretion, tendency (no concentration stated) [1] | glycerol content of the supernatant under FSK (forskolin) stimulation (3T3-L1 cells) | secretion of inflammatory factor MCP-1 in THP-1 mononuclear macrophages [2] | MCP-1 reducing activity compared with BMS309403 and RO6806051 [2]
 |  |  | CCc1c(-c2ccccc2)c(-c2ccccc2)nn1-c1ccccc1-c1cccc(OCC(=O)O)c1 [BMS309403] | inhibit cell proliferation and metastasis and promote cell apoptosis |  |  |  | 
93 | 73 | 48 | O=C(O)c1c(-c2ccccc2)c2cc(Cl)ccc2c(=O)n1CC1CCCCC1 [Compound Y2, 6-Chloro-2-(cyclohexylmethyl)-1-oxo-4-phenyl-1,2-dihydroisoquinoline-3-carboxylic Acid] |  | tendency to reduce IL-6 secretion but with no statistical difference | significantly reduce the glycerol content | could reduce the secretion of inflammatory factor MCP-1 | better than those of the positive control FABP4 inhibitor BMS309403 and the lead compound RO6806051
93 | 68 | 36 | O=C(O)c1c(-c2ccccc2)c2cc(Cl)ccc2c(=O)n1C1CCCC1 [Compound Y3, 6-Chloro-2-cyclopentyl-1-oxo-4-phenyl-1,2-dihydroisoquinoline-3-carboxylic Acid] |  | tendency to reduce IL-6 secretion but with no statistical difference | significantly reduce the glycerol content | could reduce the secretion of inflammatory factor MCP-1 | better than those of the positive control FABP4 inhibitor BMS309403 and the lead compound RO6806051
